7 molecules from ChEMBL document CHEMBL1201862, “PubChem BioAssay data set” (2004) can be followed below.

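Where inhibition never reached the appropriate level, the endpoint shown equals the highest concentration tested. Otherwise, values were interpolated linearly from a five-concentration, 48-hour dose response in 96-well plates. The concentration for 50% growth inhibition is given as GI50.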 Activity calls are given as the source filed them. No stated cut-off is given here; in the data, active = GI50 up to about 1.1 µM and inactive = higher.

Test systems include NCI-H522; UACC-62; SK-MEL-5; IGROV-1; UACC-257; Malme-3M; OVCAR-4; NCI-H460; KM12; RXF 393; SK-OV-3; SK-MEL-2; OVCAR-5; CAKI-1; HL-60; SW-620; SK-MEL-28; SN12C; COLO 205; SF-268.
What all share (test): NCI tumour cell line growth inhibition, 48 h

As to `CC1(C)N=C(N)N=C(N)N1c1ccc(OCCCOc2ccccc2)c(Cl)c1`, the GI50 is 0.247 µM (active) with NCI-H522; 0.472 µM (active) in the assay with UACC-62; 0.265 µM (active) in the assay with SK-MEL-5; < 0.0301 µM (active) in the assay with IGROV-1; 0.766 µM (active) in the assay with UACC-257; 0.49 µM (active) in the assay on Malme-3M. Further, the GI50 in the assay on OVCAR-4 was 0.156 µM (active); in the assay with NCI-H460, 0.0457 µM (active); in the assay on KM12, 0.122 µM (active); in the assay with RXF 393 it was 0.479 µM (active); in the assay with SK-OV-3, 7.31 µM (inactive); in the assay on SK-MEL-2, 1.37 µM (inactive). Further, the GI50 is 0.295 µM (active) in the assay on OVCAR-5; 1.77 µM (inactive) in the assay with CAKI-1; 0.0322 µM (active) in the assay on HL-60; 0.0356 µM (active) in the assay on SW-620; 0.809 µM (active) in the assay on SK-MEL-28; 0.202 µM (active) with SN12C. The GI50 is 0.112 µM (active) with COLO 205 and 0.0585 µM (active) in the assay with SF-268.

For the molecule `NCCCNCCSSCc1ccccc1CSSCCNCCCN`, the GI50 in the assay on NCI-H522 was 10.7 µM (inactive); with UACC-62, 34.1 µM (inactive); in the assay with SK-MEL-5, 79.3 µM (inactive); with IGROV-1 it was > 100 µM (inactive); with UACC-257 it was 25 µM (inactive); with Malme-3M, 90.6 µM (inactive). The GI50 is 70.6 µM (inactive) in the assay on OVCAR-4; > 100 µM (inactive) with NCI-H460; 49.9 µM (inactive) in the assay with KM12; > 100 µM (inactive) in the assay on RXF 393; > 100 µM (inactive) with SK-OV-3; > 100 µM (inactive) in the assay on SK-MEL-2. For the same molecule, the GI50 with OVCAR-5 is > 100 µM (inactive); in the assay with CAKI-1 it was 35.7 µM (inactive); in the assay with HL-60 it was 9.93 µM (inactive); in the assay on SW-620, 16.7 µM (inactive); with SK-MEL-28, 75 µM (inactive); with SN12C, > 100 µM (inactive). In addition, the GI50 in the assay with COLO 205 is 39.4 µM (inactive); in the assay on SF-268, 85.1 µM (inactive).

For the molecule `COC(=O)C1=C(OC(=O)/C=C/c2ccc(Cl)cc2)C(C(=O)OC)[C@@]2(O)[C@@H](C(=O)OC)[C@H](C)C[C@@H]1[C@@H]2C(=O)OC` (stereo not given in full), the GI50 in the assay on NCI-H522 is 6.81 µM (inactive); with UACC-62, 17.6 µM (inactive); in the assay on SK-MEL-5 it was 17.2 µM (inactive); in the assay with IGROV-1, 3.94 µM (inactive); in the assay with UACC-257 it was 45.1 µM (inactive); with Malme-3M, 11.3 µM (inactive). Also, the GI50 was 27.1 µM (inactive) in the assay with OVCAR-4; 27.2 µM (inactive) in the assay on NCI-H460; 34.1 µM (inactive) in the assay on KM12; 27.2 µM (inactive) in the assay on RXF 393; 24.6 µM (inactive) in the assay with SK-OV-3; 15.7 µM (inactive) in the assay with SK-MEL-2. In addition, the GI50 is 28.4 µM (inactive) with OVCAR-5; 22.5 µM (inactive) with CAKI-1; 13.6 µM (inactive) with HL-60; 28.4 µM (inactive) in the assay with SW-620; 26.4 µM (inactive) in the assay on SK-MEL-28; 19 µM (inactive) in the assay on SN12C. Moreover, the GI50 in the assay on COLO 205 was 17.1 µM (inactive); with SF-268, 16.7 µM (inactive).

For `C=C1C(=O)OC2C1CC1OC2C(C)CCC/C(C)=C\CCC1(C)O` (stereo not given), the GI50 with NCI-H522 was 8.71 µM (inactive); in the assay with UACC-62, 9.04 µM (inactive); in the assay with SK-MEL-5 it was 5.14 µM (inactive); with IGROV-1, 13.9 µM (inactive); in the assay on UACC-257 it was 22.6 µM (inactive); in the assay on Malme-3M, 32.7 µM (inactive). In addition, the GI50 in the assay with OVCAR-4 is 18.2 µM (inactive); in the assay on NCI-H460 it was 20.1 µM (inactive); in the assay with KM12, 19.8 µM (inactive); in the assay with RXF 393, 5.7 µM (inactive); with SK-OV-3, 65.3 µM (inactive); in the assay on SK-MEL-2 it was 10.8 µM (inactive). The GI50 in the assay on OVCAR-5 was 69.2 µM (inactive); in the assay on CAKI-1, 18.6 µM (inactive); with HL-60, 5.61 µM (inactive); with SW-620, 10.9 µM (inactive); in the assay with SK-MEL-28, 16.4 µM (inactive); in the assay on SN12C, 19.5 µM (inactive). In addition, the GI50 in the assay on COLO 205 is 15.8 µM (inactive); in the assay with SF-268, 13 µM (inactive).

`COc1ccc2nc3ccc(OC)cc3c([S+]([O-])CCCl)c2c1` (stereo not given): the GI50 is 1.67 µM (inactive) in the assay with NCI-H522; 15.8 µM (inactive) in the assay on UACC-62; 14.9 µM (inactive) in the assay with SK-MEL-5; 2.48 µM (inactive) in the assay with IGROV-1; 2.21 µM (inactive) in the assay on UACC-257; 1.69 µM (inactive) with Malme-3M. Also, the GI50 in the assay with OVCAR-4 was 5.05 µM (inactive); with NCI-H460, 26.4 µM (inactive); in the assay with KM12 it was 16.6 µM (inactive); in the assay with RXF 393 it was 3.59 µM (inactive); in the assay on SK-OV-3, 20.7 µM (inactive); in the assay on SK-MEL-2, 17.7 µM (inactive). Further, the GI50 with OVCAR-5 was 14.9 µM (inactive); in the assay with CAKI-1, 2.62 µM (inactive); in the assay on HL-60, 2.31 µM (inactive); in the assay with SW-620, 3.3 µM (inactive); with SK-MEL-28, 3.73 µM (inactive); with SN12C, 1.94 µM (inactive). Besides, the GI50 with COLO 205 is 1.77 µM (inactive); in the assay on SF-268, 6.76 µM (inactive).

As for `COc1cc(C2c3cc4c(cc3[C@@H](Nc3cnc5ccccc5c3)C3COC(=O)[C@H]23)OCO4)cc(OC)c1O` (stereo not given in full), the GI50 was 1.03 µM (active) in the assay on NCI-H522; 0.301 µM (active) in the assay on UACC-62; 0.193 µM (active) with SK-MEL-5; 1.39 µM (inactive) in the assay on IGROV-1; 0.839 µM (active) with UACC-257; 0.621 µM (active) in the assay on Malme-3M. The GI50 in the assay with OVCAR-4 is 1.05 µM (active); with NCI-H460 it was < 0.01 µM (active); with KM12 it was 0.883 µM (active); in the assay on RXF 393, 0.912 µM (active); with SK-OV-3, 0.615 µM (active); in the assay with SK-MEL-2, 1.76 µM (inactive). In addition, the GI50 was 0.736 µM (active) in the assay with OVCAR-5; 0.129 µM (active) in the assay with CAKI-1; < 0.033 µM (active) in the assay on HL-60; 0.296 µM (active) in the assay on SW-620; 1.14 µM (inactive) in the assay with SK-MEL-28; 0.338 µM (active) in the assay with SN12C. Also, the GI50 with COLO 205 was 1.28 µM (inactive); with SF-268, 0.327 µM (active).

On to `COc1ccc(/C=C2/C(=O)N(C(=O)c3ccccc3O)N=C2C)cc1OC`, for which the GI50 was 1.71 µM (inactive) in the assay on NCI-H522; 0.147 µM (active) in the assay with UACC-62; 0.982 µM (active) with SK-MEL-5; 0.133 µM (active) with IGROV-1; 1.42 µM (inactive) in the assay with UACC-257; 0.849 µM (active) in the assay on Malme-3M. Also, the GI50 in the assay with OVCAR-4 was 2.44 µM (inactive); in the assay on NCI-H460, 0.34 µM (active); in the assay with KM12 it was 0.516 µM (active); in the assay on RXF 393, 0.0214 µM (active); in the assay on SK-OV-3, 1.21 µM (inactive); with SK-MEL-2 it was 0.605 µM (active). Also, the GI50 with OVCAR-5 was 3.9 µM (inactive); with CAKI-1 it was 2.46 µM (inactive); in the assay on HL-60, 0.687 µM (active); in the assay with SW-620 it was 3.27 µM (inactive); in the assay on SK-MEL-28, 23.9 µM (inactive); in the assay with SN12C, 2.42 µM (inactive). Moreover, the GI50 in the assay with COLO 205 is 26.7 µM (inactive); in the assay with SF-268, 0.556 µM (active).
